We go through eleven compounds from US20210255193A1, “LYSINE REACTIVE PROBES AND USES THEREOF” (The Scripps Research Institute, priority 2017, published 2021).

What all share (experiment): competitive isoTOP-ABPP
What all share (assay type): binding

Assay [1] has as its target T1, LDHB L-lactate dehydrogenase B chain (Homo sapiens, UniProt P07195).
T1 construct: isoTOP-ABPP experiments performed in cell lysates (in vitro); endogenous in cells; host or cells: MDA-MB-231 soluble lysate
The following applies: for isoTOP-ABPP ratio (R) at liganded lysine P07195_K244 / isoTOP-ABPP ratio (R) at liganded lysine P07195_K82: sol, 231. A digest of the protocol: (§1)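 Lysate + fragment (50 μM activated ester / 100 μM guanidinylating agent) or DMSO → 0.1 mM STP-alkyne, 1 h, RT → CuAAC to TEV tags (compound light, DMSO heavy) → LC-MS. R = heavy/light MS1 area; liganded lysine if R≥4.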

Assay [2] has as its target T2, ARL6IP1 ADP-ribosylation factor-like protein 6-interacting (Homo sapiens, UniProt Q15041).
T2 construct: isoTOP-ABPP experiments performed in cell lysates (in vitro); endogenous in cells; host or cells: soluble proteome of human cancer cell lines (MDA-MB-231; Ramos and Jurkat also prepared)
The conditions noted are these: for isoTOP-ABPP ratio (R) at liganded lysine Q15041_K188: sol, 231; for isoTOP-ABPP ratio, lysine Q15041_K188: 50 uM_231_sol_in vitro. A digest of the protocol:
as §1

A further assay has as its target T3, SPAST Spastin (Homo sapiens, UniProt Q9UBP0).
T3 construct: endogenous in cells; host or cells: MDA-MB-231 lysate
T3 sequence (Q9UBP0 1-616): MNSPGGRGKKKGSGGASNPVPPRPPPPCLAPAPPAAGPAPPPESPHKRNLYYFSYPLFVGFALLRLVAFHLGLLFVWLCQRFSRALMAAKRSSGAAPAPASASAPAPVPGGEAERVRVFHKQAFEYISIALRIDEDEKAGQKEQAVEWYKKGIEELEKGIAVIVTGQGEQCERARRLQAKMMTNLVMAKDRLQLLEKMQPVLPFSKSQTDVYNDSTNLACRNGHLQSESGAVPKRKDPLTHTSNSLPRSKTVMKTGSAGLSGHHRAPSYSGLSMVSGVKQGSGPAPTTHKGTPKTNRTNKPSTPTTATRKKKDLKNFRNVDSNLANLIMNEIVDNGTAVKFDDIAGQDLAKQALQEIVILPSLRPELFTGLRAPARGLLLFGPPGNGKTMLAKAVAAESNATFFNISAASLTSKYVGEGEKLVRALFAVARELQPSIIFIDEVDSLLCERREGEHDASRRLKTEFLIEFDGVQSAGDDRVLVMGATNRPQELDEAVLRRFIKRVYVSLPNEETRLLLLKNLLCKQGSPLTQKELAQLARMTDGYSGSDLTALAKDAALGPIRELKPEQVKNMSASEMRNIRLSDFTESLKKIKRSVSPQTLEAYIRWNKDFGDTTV
The following applies: 50 uM, in vitro; for isoTOP-ABPP ratio (R) at liganded lysine Q9UBP0_K180: sol, 231. A digest of the protocol:
as §1

For assay [3], the target named is T4, CDK2 Cyclin-dependent kinase 2 (Homo sapiens, UniProt P24941).
T4 construct: isoTOP-ABPP experiments performed in cell lysates (in vitro); endogenous in cells; host or cells: soluble proteome of human cancer cell lines (MDA-MB-231; Ramos and Jurkat also prepared)
The following applies: 50 uM, in vitro, sol, 231. The gist of the method:
as §1

For assay [4], the target named is T5, AKR1C3 Aldo-keto reductase family 1 member C3 (Homo sapiens, UniProt P42330).
T5 construct: isoTOP-ABPP experiments performed in cell lysates (in vitro); endogenous in cells; host or cells: soluble proteome of human cancer cell lines (MDA-MB-231; Ramos and Jurkat also prepared)
T5 sequence (P42330 1-323): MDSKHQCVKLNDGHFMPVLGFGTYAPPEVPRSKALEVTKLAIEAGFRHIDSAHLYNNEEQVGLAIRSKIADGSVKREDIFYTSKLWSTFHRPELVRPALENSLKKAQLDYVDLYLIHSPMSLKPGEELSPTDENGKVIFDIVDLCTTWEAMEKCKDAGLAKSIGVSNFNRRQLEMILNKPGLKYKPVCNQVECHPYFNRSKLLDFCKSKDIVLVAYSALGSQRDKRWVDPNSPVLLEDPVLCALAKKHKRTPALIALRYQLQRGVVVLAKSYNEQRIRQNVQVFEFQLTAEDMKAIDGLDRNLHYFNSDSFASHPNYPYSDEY
The conditions noted are these: for isoTOP-ABPP ratio (R) at liganded lysine P42330_K270: 50 uM, in vitro, sol, 231; for isoTOP-ABPP ratio, lysine P42330_K270: possible other lysine P52895_K270, P17516_K270, Q04828_K270. A digest of the protocol: as §1

The target of assay [5] is T6, ATP6V1F V-type proton ATPase subunit F (Homo sapiens, UniProt Q16864).
T6 construct: isoTOP-ABPP experiments performed in cell lysates (in vitro); endogenous in cells; host or cells: soluble proteome of human cancer cell lines (MDA-MB-231; Ramos and Jurkat also prepared)
T6 sequence (Q16864 whole entry): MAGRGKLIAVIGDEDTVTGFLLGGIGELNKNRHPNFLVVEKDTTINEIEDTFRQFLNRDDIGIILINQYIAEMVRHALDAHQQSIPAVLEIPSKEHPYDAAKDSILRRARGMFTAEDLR
The conditions noted are these: for isoTOP-ABPP ratio (R) at liganded lysine Q16864_K6: 50 uM, in vitro, sol, 231. A digest of the protocol:
as §1

Structures are written as SMILES.

T2 sequence (Q15041 whole entry): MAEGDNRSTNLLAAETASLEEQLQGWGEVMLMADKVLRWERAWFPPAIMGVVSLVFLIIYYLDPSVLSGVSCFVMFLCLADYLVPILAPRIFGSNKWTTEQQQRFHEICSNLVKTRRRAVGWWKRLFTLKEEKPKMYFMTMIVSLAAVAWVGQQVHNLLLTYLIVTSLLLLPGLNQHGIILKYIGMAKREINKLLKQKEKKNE
T1 sequence (P07195 whole entry): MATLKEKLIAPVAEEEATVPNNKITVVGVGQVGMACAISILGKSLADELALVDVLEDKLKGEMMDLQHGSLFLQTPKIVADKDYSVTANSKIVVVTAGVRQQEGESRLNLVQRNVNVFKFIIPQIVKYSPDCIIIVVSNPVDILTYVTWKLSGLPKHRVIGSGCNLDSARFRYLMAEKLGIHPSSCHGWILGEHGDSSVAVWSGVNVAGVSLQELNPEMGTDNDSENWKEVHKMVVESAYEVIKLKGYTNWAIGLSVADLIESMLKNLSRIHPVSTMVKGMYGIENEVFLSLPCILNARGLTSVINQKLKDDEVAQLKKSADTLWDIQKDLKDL

Turning to `Cn1cc(CC(=O)Oc2ccc([N+](=O)[O-])cc2[N+](=O)[O-])c2ccccc21` [fragment 32, 2,4-Dinitrophenyl 2-(1-methyl-1H-indol-3-yl)acetate], in assay [1] (50 uM, 231 sol, in vitro), the “isoTOP-ABPP reactivity ratio at lysine P07195_K82” value is 0.8 and the “isoTOP-ABPP reactivity ratio at lysine P07195_K244” value worked out at 1.0. For the same compound, the “isoTOP-ABPP reactivity ratio at lysine Q15041_K188” value in assay [2] (50 uM, 231 sol, in vitro) is listed as 5.9. At SPAST Spastin (231 sol), the “isoTOP-ABPP reactivity ratio at lysine Q9UBP0_K180” value is 2.5.
For `O=C(Oc1ccc([N+](=O)[O-])cc1[N+](=O)[O-])C1CCN(C(=O)OCc2ccccc2)CC1` [fragment 34, 1-Benzyl 4-(2,4-dinitrophenyl) piperidine-1,4-dicarboxylate], in assay [1] (50 uM, in vitro), the “isoTOP-ABPP ratio (R) at liganded lysine P07195_K244” value is reported as 1.0. Further, the “isoTOP-ABPP ratio (R) at liganded lysine P24941_K33” value in assay [3] amounted to 1.0. Besides, the “isoTOP-ABPP ratio (R) at liganded lysine P42330_K270” value in assay [4] was 1.1.
As to `O=C(Oc1ccc([N+](=O)[O-])cc1[N+](=O)[O-])c1ccc2ccccc2n1` [fragment 35, 2,4-Dinitrophenyl quinoline-2-carboxylate], the “isoTOP-ABPP ratio (R) at liganded lysine P07195_K82” value in assay [1] (50 uM, in vitro) was found to be 0.6. Also, in assay [2] (50 uM, in vitro), the “isoTOP-ABPP ratio (R) at liganded lysine Q15041_K188” value is reported as 1.4. Also, in assay [3], the “isoTOP-ABPP ratio (R) at liganded lysine P24941_K33” value is recorded as 1.6. Also, the “isoTOP-ABPP ratio (R) at liganded lysine P42330_K270” value in assay [4] is reported as 0.6.
As to `O=C(CCc1coc2cc(F)ccc2c1=O)Oc1ccc([N+](=O)[O-])cc1[N+](=O)[O-]` [fragment 36, 2,4-Dinitrophenyl 3-(7-fluoro-4-oxo-4H-chromen-3-yl)propanoate], in assay [1] (50 uM, in vitro), the “isoTOP-ABPP ratio (R) at liganded lysine P07195_K82” value came out at 0.9 and the “isoTOP-ABPP ratio (R) at liganded lysine P07195_K244” value amounted to 20.0. In assay [2] (50 uM, in vitro), the “isoTOP-ABPP ratio (R) at liganded lysine Q15041_K188” value amounted to 1.6. In addition, the “isoTOP-ABPP ratio (R) at liganded lysine Q16864_K6” value in assay [5] was found to be 1.0. For the same compound, the “isoTOP-ABPP ratio (R) at liganded lysine P42330_K270” value in assay [4] is on record as 0.6.
With `O=C(CC12CC3CC(CC(C3)C1)C2)Oc1ccc([N+](=O)[O-])cc1[N+](=O)[O-]` [fragment 38, 2,4-Dinitrophenyl 2-(adamantan-1-yl)acetate], the “isoTOP-ABPP ratio (R) at liganded lysine P07195_K82” value in assay [1] (50 uM, in vitro) amounted to 0.7. Besides, in assay [3], the “isoTOP-ABPP ratio (R) at liganded lysine P24941_K33” value is 0.9. For the same compound, the “isoTOP-ABPP ratio (R) at liganded lysine Q9UBP0_K180” value at SPAST Spastin is 2.1. In addition, the “isoTOP-ABPP ratio (R) at liganded lysine Q16864_K6” value in assay [5] was 1.0. The “isoTOP-ABPP ratio (R) at liganded lysine P42330_K270” value in assay [4] stood at 0.9.
With `O=C(Oc1ccc([N+](=O)[O-])cc1[N+](=O)[O-])c1ccccc1Nc1cccc(C(F)(F)F)c1` [fragment 40, 2,4-Dinitrophenyl 2-((3-(trifluoromethyl)phenyl)amino)benzoate], the “isoTOP-ABPP ratio (R) at liganded lysine P07195_K82” value in assay [1] (50 uM, in vitro) is 20.0. Besides, in assay [3], the “isoTOP-ABPP ratio (R) at liganded lysine P24941_K33” value is 1.0. Further, the “isoTOP-ABPP ratio (R) at liganded lysine Q16864_K6” value in assay [5] is listed as 0.9. Besides, in assay [4], the “isoTOP-ABPP ratio (R) at liganded lysine P42330_K270” value was 2.2.
For the compound `CC(=O)Oc1ccc([N+](=O)[O-])cc1[N+](=O)[O-]` [fragment 43, 2,4-Dinitrophenyl acetate], the “isoTOP-ABPP ratio (R) at liganded lysine Q15041_K188” value in assay [2] (50 uM, in vitro) stood at 1.4. Further, the “isoTOP-ABPP ratio (R) at liganded lysine Q9UBP0_K180” value on SPAST Spastin came to 2.7. In assay [5], the “isoTOP-ABPP ratio (R) at liganded lysine Q16864_K6” value is 20.0.
Take `O=C(Oc1c(F)c(F)c(C(F)(F)F)c(F)c1F)c1cc(C(F)(F)F)cc(C(F)(F)F)c1` [fragment 47, 2,3,5,6-Tetrafluoro-4-(trifluoromethyl)phenyl 3,5-bis(trifluoromethyl)benzoate]: the “isoTOP-ABPP ratio, lysine P07195_K244” value in assay [1] (50 uM_231_sol_in vitro) stood at 1.0. Further, in assay [2], the “isoTOP-ABPP ratio, lysine Q15041_K188” value is 3.5. For the same compound, the “isoTOP-ABPP ratio, lysine P42330_K270” value in assay [4] (50 uM_231_sol_in vitro) is given as 2.5.
As to `O=C(Oc1c(F)c(F)cc(F)c1F)c1cc(C(F)(F)F)cc(C(F)(F)F)c1` [fragment 48, 2,3,5,6-Tetrafluorophenyl 3,5-bis(trifluoromethyl)benzoate], in assay [2], the “isoTOP-ABPP ratio, lysine Q15041_K188” value was found to be 3.5.
Regarding `COC(=O)NC(=NC(=O)OCC1c2ccccc2-c2ccccc21)n1cccn1` [fragment 49, N-Methoxycarbonyl-N′-9-fluorenylmethoxycarbonyl-pyrazole-1-carboxamidine], the “isoTOP-ABPP ratio, lysine Q16864_K6” value in assay [5] (100 uM_231_sol_in vitro) is given as 1.3. For the same compound, the “isoTOP-ABPP ratio, lysine P42330_K270” value in assay [4] (100 uM_231_sol_in vitro) stood at 0.8.
Consider `NC(=O)c1cc(C(F)(F)F)cc(C(F)(F)F)c1` [fragment 51, reference compound], for which the “isoTOP-ABPP ratio, lysine P42330_K270” value in assay [4] (50 uM_231_sol_in vitro) is recorded as 0.8.
